Laboratory results taken from the supplement of paper PMC10307832.

Columns and labels:
Assay in all cases: relative viability (nuclei count vs DMSO), 5 days (fraction); higher = more cells survive
Nelarabine + Pemetrexed = compound: COc1nc(N)nc2c1ncn2[C@@H]1O[C@H](CO)[C@@H](O)[C@@H]1O [Nelarabine] + Nc1nc2[nH]cc(CCc3ccc(C(=O)N[C@@H](CCC(=O)O)C(=O)O)cc3)c2c(=O)[nH]1 [Pemetrexed] (partner 0.2 µM)
In short: (§1)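 Medians of duplicate plates are given as relative viability. That measure is the nuclei count in treated wells divided by the count in vehicle wells. Counts were taken on 4× images of lung cancer cell lines in 1536-well plates, 5 days after pin-tool dosing the day after seeding with one drug alone or a fixed anchor-drug dose plus five library-drug doses (not always all listed) in √10 steps.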

Adavosertib + OSI-027 = compound: C=CCn1c(=O)c2cnc(Nc3ccc(N4CCN(C)CC4)cc3)nc2n1-c1cccc(C(C)(C)O)n1 [Adavosertib] + COc1cccc2cc(-c3nc([C@H]4CC[C@H](C(=O)O)CC4)n4ncnc(N)c34)[nH]c12 [OSI-027] (partner 0.5 µM)
In short: as §1

Nelarabine = compound: COc1nc(N)nc2c1ncn2[C@@H]1O[C@H](CO)[C@@H](O)[C@@H]1O [Nelarabine]
In short: (§2)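 Cells of lung cancer lines were placed in 1536-well plates and kept overnight at 37 °C. Pinning then delivered five library-drug doses (not always all listed), spaced by √10, onto plates anchored with vehicle, and the cells were left 5 days without changing medium. One step fixed, permeabilised and stained them with Hoechst, and MetaXpress counted nuclei in 4× images. Viability, as a median over plates, is treated-well nuclei divided by vehicle-well nuclei, with acceptance only at control CV below 25% and at least one doubling.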

Adavosertib = compound: C=CCn1c(=O)c2cnc(Nc3ccc(N4CCN(C)CC4)cc3)nc2n1-c1cccc(C(C)(C)O)n1 [Adavosertib]
In short: as §2

| Cell Line | relative viability (Nelarabine + Pemetrexed; first compound 0.01 µM) | relative viability (Nelarabine + Pemetrexed; first compound 0.03162 µM) | relative viability (Nelarabine + Pemetrexed; first compound 0.1 µM) | relative viability (Nelarabine + Pemetrexed; first compound 0.3162 µM) | relative viability (Nelarabine + Pemetrexed; first compound 1 µM) | relative viability (Adavosertib + OSI-027; first compound 0.01 µM) | relative viability (Adavosertib + OSI-027; first compound 0.03162 µM) | relative viability (Adavosertib + OSI-027; first compound 0.1 µM) | relative viability (Adavosertib + OSI-027; first compound 0.3162 µM) | relative viability (Nelarabine; 0.01 µM) | relative viability (Nelarabine; 0.03162 µM) | relative viability (Nelarabine; 0.1 µM) | relative viability (Nelarabine; 0.3162 µM) | relative viability (Nelarabine; 1 µM) | relative viability (Adavosertib; 0.01 µM) | relative viability (Adavosertib; 0.03162 µM) | relative viability (Adavosertib; 0.1 µM) | relative viability (Adavosertib; 0.3162 µM) |
| --- | --- | --- | --- | --- | --- | --- | --- | --- | --- | --- | --- | --- | --- | --- | --- | --- | --- | --- |
| NCI-H647 | 0.17 | 0.162 | 0.154 | 0.194 | 0.217 | 0.635 | 0.609 | 0.569 | 0.26 | 1.29 | 0.916 | 1.07 | 1.14 | 0.997 | 1.03 | 1.04 | 0.918 | 0.669 |
| NCI-H3122 | 0.194 | 0.18 |  | 0.204 | 0.195 | 0.972 | 0.914 | 1.07 | 1.06 | 1.1 | 0.929 |  | 1.06 | 1.05 | 0.987 | 0.95 | 1.04 | 1.03 |
| NCI-H650 | 0.986 | 0.814 | 0.913 | 0.971 | 1.02 | 0.476 | 0.606 | 0.526 | 0.446 | 0.942 | 0.996 | 0.962 | 1 | 1.04 | 0.896 | 0.972 | 1.03 | 0.859 |
| H3255 | 0.531 | 0.571 | 0.557 | 0.551 | 0.571 | 0.506 | 0.654 | 0.584 | 0.539 | 0.998 | 1.08 | 0.987 | 0.963 | 0.97 | 0.888 | 1.07 | 1.02 | 1.08 |
| SW 1573 | 0.957 | 0.908 | 1.01 | 0.838 | 0.877 | 0.645 | 0.626 | 0.882 | 0.278 | 1.13 | 1.04 | 0.995 | 1.05 | 0.979 | 0.99 | 1.03 | 1.14 | 0.965 |
| HCC-15 | 0.233 | 0.242 | 0.218 | 0.212 | 0.217 | 0.669 | 0.786 | 0.756 | 0.802 | 1.16 | 0.978 | 1.06 | 1.07 | 1.06 | 0.979 | 1.05 | 1.07 | 1.23 |
| NCI-H2342 | 0.901 | 0.659 | 0.681 | 0.817 | 0.801 | 0.575 | 0.566 | 0.676 | 0.616 | 1.07 | 0.833 | 1.01 | 0.969 | 0.99 | 1.01 | 1.02 | 0.986 | 0.96 |
| PC-3 [JPC-3] | 0.9 | 0.866 | 1.36 | 1.17 | 0.751 | 0.805 | 0.743 | 0.775 | 0.731 | 1.08 | 1.09 | 1.14 | 1.06 | 1.06 | 1.04 | 1.04 | 1.04 | 1.05 |
| NCI-H1648 |  | 0.805 |  | 0.885 | 0.75 | 0.273 | 0.293 | 0.248 | 0.251 | 0.713 | 0.929 | 0.776 | 1.11 | 0.881 | 0.907 | 0.847 | 0.838 | 0.71 |
